Measurements reported in patent US20230414584A1, “ADMINISTRATION OF ANTIBIOTIC COMPOUNDS FOR THE TREATMENT OF STREPTOCOCCAL INFECTIONS FOR THE TREATMENT OF PSORIASIS” (CENTRE FOR DIGESTIVE DISEASES, priority 2017, published 2023).

Key:
[1] = tested on: extensive plaque psoriasis; experiment: Case report: treatment of psoriasis with Clofazimine, Rifampicin, Tinidazole, Enbrel (Example 4); assay type: in vivo, human
Description: It was at this time that antibiotics were added to the etanercept (Enbrel™).

psoriasis of the scalp = experiment: Case report: treatment of psoriasis of the scalp in an adult with OCD using Metronidazole (Example 1); assay type: in vivo, human
Excerpt: A patient with Obsessive-Compulsive Personality Disorder (OCD) commenced treatment in April 2016 with two non-absorbable antibiotics (vancomycin and rifaximin), together with the absorbable Metronidazole. The aim was to suppress their gut bacteria to reduce the OCD.

## CN(Cc1cnc2nc(N)nc(N)c2n1)c1ccc(C(=O)N[C@@H](CCC(=O)O)C(=O)O)cc1 [Methotrexate]
[1]; person, steroid-dependent extensive psoriasis
  adverse effects: unacceptable adverse effects

## Cc1ncc([N+](=O)[O-])n1CCO [Metronidazole]
Psoriasis of the scalp; patient, Metronidazole given with non-absorbable vancomycin and rifaximin from April 2016, by November of 2016
  psoriasis of the scalp: marked suppression of the psoriasis of the scalp
Psoriasis of the scalp; same patient, by February of 2017
  psoriasis of the scalp: very little psoriasis left on the scalp

## etanercept
[1]; in spite of many months of injections, before antibiotics were added
  response of psoriasis on continued treatment: the response stalled
[1]; person, before antibiotics were added
  response of psoriasis: reduction of the surface area of their body covered by psoriasis plaque
